Test results as given in patent US8293464B2, “Methods for reducing the internalization of viruses and identification of compounds effective thereof” (Universiteit Gent, priority 2008, dated 2012).
Read-outs that look alike come from different tables or passages of the source. Residues, ends and D or L forms follow the SMILES beside them.

Tests used:
[1] = system: feline monocytes; experiment: Internalization assay of control ligands (beads, transferrin or albumin) in monocytes; assay type: cell-based; conditions: for internalization of a control ligand: control ligand not named
Method: To test the effectiveness of all reagents, a suitable control was used in each experiment. Monocytes seeded on glass coverslips were pre-incubated for 30 minutes at 37° C. with 5% CO2 in the presence of one of the inhibitors. After treatment, the cells were incubated with biotinylated transferrin (Sigma-Aldrich GmbH) or fluorescent 1 μm polystyrene microspheres, FluoSpheres (Molecular Probes-Invitrogen), in presence of the inhibitor. Then, cells were fixed with 1% formaldehyde and permeabilized with 0.1% Triton X-100. The biotinylated transferrin was visualized by incubating the cells with streptavidin-FITC for 1 hour at 37° C. and cells incubated with fluorescent beads were incubated with phalloidin-Texas Red (Molecular Probes-Invitrogen) for 1 hour at 37° C. to visualize the lamellipodia. The glass coverslips were mounted on microscope slides using glycerin-DABCO and analyzed by confocal microscopy. […] Fluorescent beads were considered internalized when they were found inside the cortical actin labeling.

[2] = system: surface expressed viral antigens in FIPV infected monocytes; experiment: Internalization inhibition assay of surface expressed viral antigens (antigen-antibody complexes); assay type: cell-based, feline; conditions: each inhibitor at its working concentration; for internalization of viral antigens: 30 min pre-incubation, 30 min with antibodies
[3] = system: swine influenzavirus in MDCK cells; assay type: cell-based
[4] = system: HIV-1 NL4.3-eGFP; assay type: cell-based, Human Immunodeficiency Virus 1
Method: In this experiment the Human Immunodeficiency Virus 1 (HIV-1) strain HIV-1 NL4.3-eGFP which is a lab strain with an eGFP reporter, was used to infect the human T-cell lymphoblatic lymphoma cell line SupT1. The percentage of eGFP positive cells measured at different time point was used as endpoint read out SupT1. ML-7 inhibitor was used at three different concentration: 0 (DMSO), 2,5 and 25 μM.
SupT1 cells were at a concentration of 20000 cell/well in 200 μl of iMDM medium supplemented with 10% FCS, 1% penicillin/streptomycin and 1% L-glutamine, and were centrifuged at 300 g for 5 min at 4° C. Supernatant was removed and the cells were treated for 30 min with 100 μl of 0 (DMSO at 1/200 dilution in culture medium), 5 and 50 μM ML-7 inhibitor prepared in culture medium at 1/2000 and 1/200 dilution respectively. Meanwhile, HIV-1 NL4.3-eGFP virus was diluted in 10 fold dilution series in a separate plate (starting from 1/5 of stock, put on first well). 100 μl of each virus at every dilution was transferred to the corresponding well of the culture plate treated with the inhibitor. Four hours later approximately 100 μl was transferred to an
Cells were centrifuged at 300 g for 5 min at 4° C. and approximately 100 μl was collected then stored at −80° C. for p24 measurement. Then 100 μl of cells infected with HIV1-NL4.3-eGFP virus was collected for the determination of the percentage of eGFP positive cells by FACS. Cells were resuspended in 200 μl of medium containing the adequate ML-7 inhibitor concentration. • 3. Day 7
Cells were treated in the same way as in day 3
During the course of the experiment cells were monitored carefully by microscopy to check for signs of infection such as: • eGFP expression • Syncytia formation • Cell death Results

[5] = system: PRRSV in alveolar macrophage; assay type: cell-based, Porcine reproductive and respiratory syndrome virus
[6] = system: hepatitis C virus (HCV); experiment: Single infected cell reduction assay, entry of HCV in Huh7.5 hepatoma cells; assay type: cell-based, human hepatitis C virus; conditions: 25 μM; Huh7.5 cells
Method: The single infected cell reduction assay was used to determine the antiviral potency of to ML-7 on the entry of hepatitis C virus (HCV). • 1. Day 1
Huh7.5 hepatoma cells were seeded in a 96-well plate at 10000 cells/well in 100 μl medium containing 0, 2.5 or 25 μM of ML-7. • 2. Day 2
Virus was diluted in medium containing the different concentrations of the inhibitor to reach an end concentration of 2,22.10^6 IU/ml. 100 μl of this mixture was added to the wells and the plate was further incubated at 37° C. • 3. Day 6
The cells were fixed and stained for NS5A (a HCV protein). Then the amount of HCV-positive clusters per well was counted. A cluster is defined as a group of positive cells that is separated from another cluster by at least 1 non-infected cell.

[7] = system: protein kinase C; conditions: 50 and 100 μM; cited from earlier work
[8] = system: EHV (EEL cells); experiment: Plaque reduction assay, entry of equine herpesvirus in EEL cells; assay type: cell-based
[9] = system: PrV infected porcine monocytes; experiment: Antibody-induced internalization of PrV viral proteins in porcine monocytes; assay type: cell-based; conditions: 10 μM
[10] = system: Porcine respiratory coronavirus (PRCV) in ST cells; experiment: Plaque reduction assay, entry of porcine respiratory coronavirus in ST cells; assay type: cell-based
[11] = system: FIPV 1146 (CrFK cells); experiment: Plaque reduction assay, entry of FIPV 1146 in CrFK cells; assay type: cell-based, feline infectious peritonitis virus
[12] = system: HSV1 (VERO cells); experiment: Plaque reduction assay, entry of HSV1 in VERO cells; assay type: cell-based, human herpes simplex virus 1
[13] = system: protein kinase A; conditions: 50 and 100 μM; cited from earlier work
[14] = system: FECV 1863 (CrFK cells); experiment: Plaque reduction assay, entry of FECV 1863 in CrFK cells; assay type: cell-based, feline enteric coronavirus
[15] = system: PRRSV in MARC cells; experiment: Plaque reduction assay, entry of PRRSV in MARC cells; assay type: cell-based, Porcine reproductive and respiratory syndrome virus
[16] = system: FeHV (CrFK cells); experiment: Plaque reduction assay, entry of feline herpesvirus in CrFK cells; assay type: cell-based
[17] = system: FIPV Black (fcwf cells); experiment: Plaque reduction assay, entry of FIPV Black in fcwf cells; assay type: cell-based, feline infectious peritonitis virus; conditions: FIPV strain Black
[18] = system: feline monocytes; experiment: Internalization assay of control ligands (beads, transferrin or albumin) in monocytes; assay type: cell-based; conditions: 50 μg/ml genistein
[19] = inhibitor at working concentration
[20] = Day 3, 2.5 μM, virus dilution 10X
[21] = Day 3, 2.5 μM, virus dilution 100X
[22] = Day 3, 2.5 μM, virus dilution 1000X
[23] = Day 3, 25 μM, virus dilution 10X
[24] = Day 3, 25 μM, virus dilution 100X
[25] = Day 3, 25 μM, virus dilution 1000X
[26] = Day 7, 2.5 μM, virus dilution 10X
[27] = Day 7, 2.5 μM, virus dilution 100X
[28] = Day 7, 2.5 μM, virus dilution 1000X, at or below detection limit
[29] = Day 7, 25 μM, virus dilution 10X
[30] = Day 7, 25 μM, virus dilution 100X
[31] = Day 7, 25 μM, virus dilution 1000X, at or below detection limit
[32] = feline coronaviruses, FIG. 4, 50 and 100 μM
[33] = feline coronaviruses, FIG. 4, higher concentrations

O=S(=O)(NCCNC/C=C/c1ccc(Br)cc1)c1cccc2cnccc12 [H-89]
internalization of a control ligand [1, 19]: 33±29% | internalization of viral antigens (in words) [2]: unaffected

COC(=O)[C@@]1(O)C[C@H]2O[C@]1(C)n1c3ccccc3c3c4c(c5c6ccccc6n2c5c31)C(=O)NC4 [K252a, K-252a]
internalization of the control ligand (beads), in words ([1]; 150 nM K-252a): inhibited | internalization of viral antigens (in words) [2]: inhibited

COc1ccc(S(=O)(=O)N(CCO)c2ccccc2CN(C)C/C=C/c2ccc(Cl)cc2)cc1 [KN-93]
internalization of a control ligand [1, 19]: 23±16% | internalization of viral antigens (in words) [2]: unaffected

O=S(=O)(c1cccc2c(I)cccc12)N1CCCNCC1 [ML-7]
number of plaques, % of the control ([3]; 3,13 μM): 76 % of the control | further reduction at the higher concentrations ([3]; higher concentrations): no further reduction | protection from virus mediated cell death ([4]; 25 μM): protected | Percentage of eGFP cells [4, 20]: 2.98% | eGFP cells relative to 0 μM ML-7 (100%) [4, 20]: (80%) | Percentage of eGFP cells [4, 21]: 0.18% | eGFP cells relative to 0 μM ML-7 (100%) [4, 21]: (46%) | Percentage of eGFP cells [4, 22]: 0.04% | eGFP cells relative to 0 μM ML-7 (100%) [4, 22]: (36%) | Percentage of eGFP cells [4, 23]: 1.52% | eGFP cells relative to 0 μM ML-7 (100%) [4, 23]: (41%) | Percentage of eGFP cells [4, 24]: 0.19% | eGFP cells relative to 0 μM ML-7 (100%) [4, 24]: (49%) | Percentage of eGFP cells [4, 25]: 0.06% | eGFP cells relative to 0 μM ML-7 (100%) [4, 25]: (54%) | Percentage of eGFP cells [4, 26]: 35.8% | eGFP cells relative to 0 μM ML-7 (100%) [4, 26]: (92%) | Percentage of eGFP cells [4, 27]: 18.64% | eGFP cells relative to 0 μM ML-7 (100%) [4, 27]: (44%) | Percentage of eGFP cells [4, 28]: 0.95% | eGFP cells relative to 0 μM ML-7 (100%) [4, 28]: (3160%)° | Percentage of eGFP cells [4, 29]: 1.13% | eGFP cells relative to 0 μM ML-7 (100%) [4, 29]: (3%) | Percentage of eGFP cells [4, 30]: 0.14% | eGFP cells relative to 0 μM ML-7 (100%) [4, 30]: (0.3%) | Percentage of eGFP cells [4, 31]: 0.06% | eGFP cells relative to 0 μM ML-7 (100%) [4, 31]: (200%) | inhibition of HIV-1 NL4.3-eGFP infection ([4]; SupT1 cells): strong inhibition | toxic effect on cells ([4]; SupT1 cells): No toxic effect | virus induced syncytia ([4]; high concentration, data not shown): inhibited completely | protection from virus mediated cell death ([4]; intermediate inhibitor concentration): mild | number of plaques, % of the control ([5]; 0,78 μM): 68 % of the control | further reduction at the higher concentrations ([5]; higher concentrations): no further reduction | amount of infected clusters, % of the untreated control [6]: 31 % of the untreated control | block of protein kinase C [7]: can also block | additional effect at high concentration ([8]; 100 μM): additional inhibitory effect | plaques, % of the untreated control ([8]; 1,56 μM): 86 % of the untreated control | antibody-induced internalization of PrV viral proteins [9]: can be inhibited | number of plaques, % of the untreated control ([10]; 50 μM): about 40 % of the untreated control | entry (plaque formation), % of the untreated control ([10]; 1,56 μM): 68 % of the untreated control | inhibitory effect at higher concentrations ([10]; higher concentrations (up to 6 μM)): inhibitory effect is lost again | reduction of entry, % of the control ([11]; FIPV on CrFK cells, 3,13 μM): 88 % of the control | inhibitory effect on entry at the highest concentrations [11, 32]: inhibitory effect increased rapidly | inhibitory effect on entry at higher concentrations [11, 33]: inhibitory effect seemed to be lost again | plaques, % of the untreated control ([12]; 1,56 μM): 81 % of the untreated control | additional effect at high concentration ([12]; 25 and 100 μM): additional effect | block of protein kinase A [13]: can also block | internalization of the control ligand beads [1, 19]: 11±5 % of untreated control | reduction of entry, % of the control ([14]; FECV on CrFK cells, 1,56 μM): 73% | inhibitory effect on entry at the highest concentrations [14, 32]: inhibitory effect increased rapidly | inhibitory effect on entry at higher concentrations [14, 33]: inhibitory effect seemed to be lost again | internalization of viral antigens [2]: 12±21 % of untreated control | effect on entry [15]: activating effect instead of an inhibiting effect | additional effect at high concentration ([16]; 100 μM): additional inhibitory effect | plaques, % of the untreated control ([16]; 1,56 μM): 79 % of the untreated control | effect on the entry process [17]: little effect

CC(NC(=O)C(CCCN=C(N)N)NC(=O)C(CCCCN)NC(=O)C(N)CCCN=C(N)N)C(=O)NC(CCCN=C(N)N)C(=O)NC(CCCCN)C(=O)NC(CCC(=O)O)C(=O)O (centres unmarked) [PKG-inhibitor] (H-RKRARKE-OH; configuration not given here)
internalization of a control ligand [1, 19]: 14±7% | internalization of viral antigens (in words) [2]: unaffected

CN(C)CCCn1cc(C2=C(c3c[nH]c4ccccc34)C(=O)NC2=O)c2ccccc21 [bisindolylmaleimide I]
internalization of a control ligand [1, 19]: 25±13% | internalization of viral antigens (in words) [2]: unaffected

CN(N=O)c1cc(O)ccc1O [dephostatin]
internalization of the control ligand beads [1, 19]: 2±3 % of untreated control | internalization of viral antigens [2]: 96±23 % of untreated control

O=c1c(-c2ccc(O)cc2)coc2cc(O)cc(O)c12 [genistein]
internalization of the control ligand albumin [18]: 3±5 % of the untreated control | internalization of viral antigens [2]: 81±4 % of untreated control

[F-].[Na+] [sodium fluoride]
internalization of the control ligand transferrin [1, 19]: 46±6 % of the untreated control | internalization of viral antigens (in words) [2]: no reduction

CN[C@@H]1C[C@H]2O[C@@](C)([C@@H]1OC)n1c3ccccc3c3c4c(c5c6ccccc6n2c5c31)C(=O)NC4 [staurosporine]
internalization of the control ligand beads [1, 19]: 23±4 % of untreated control | internalization of viral antigens [2]: 21±2 % of untreated control
